Values after ≈ are worked out from the molar mass of the structure shown. Where two headings read alike, the source gives them in different places. Where a SMILES comes first, the peptide text is derived from it.
Experiments:
[1] = simulated gi fluid
[2] = test system: Peptostreptococcus anaerobius (ATCC 27337)
[3] = test system: Lactobacillus acidophilus (CCUG 4356)
[4] = test system: Clostridium scindens (ATCC 35704)
[5] = test system: VRE Enterococcus faecalis; conditions: VRE
[6] = test system: Eggerthella lenta (ATCC 27337)
in vitro = test: in vitro
Protocol: Assay incubation conditions included […] simulated gastric fluid (SGF, USP 39 Test Solution; 2 g/L NaCl, 7 mL/L glacial HCl, pH 1.4) containing 1.75 mg/mL Pepsin (3200-4500 U/mg) mixed with 7.5 μL of 10 mg/mL variant (or positive control, NH2-Met-Arg-Phe-Ala-OH, MRFA, CAS#67368-29-0) for a final concentration of 300 μg/ml variant in a microfuge tube. Samples were incubated at 37° C. and analyzed using HPLC or LC-MS for loss of substrate. The percent remaining, elimination rate constant (Ke), and in vitro protein half-lives were calculated. A control of SGF without enzyme was also run and analyzed in the same manner for each variant.

[7] = FaSSIF + 1% pancreatin + 3 μg/ml trypsin + 3 μg/ml chymotrypsin half-life

| MIC to H. Pylori without EDTA (Heliobacter pylori; without EDTA) [µg/mL] | SMILES | half-life [1, 7] [h] | half-life ([1]; FaSSIF only half-life) [h] | MIC to H. Pylori without EDTA (Heliobacter pylori) [µg/mL] | MIC to H. Pylori with 0.05M EDTA (Heliobacter pylori) [µg/mL] | MIC P. anaerobius [2] [µg/mL] | MIC L. acidophilus [3] [µg/mL] | MIC C. scindens [4] [µg/mL] | MIC VRE ATCC 51575 [5] [µg/mL] | MIC VRE CCUG 47775 [5] [µg/mL] | MIC E. lenta [6] [µg/mL] | MIC VRE ATCC 700221 (VRE Enterococcus faecium) [µg/mL] | half-life at 300 μg/ml (in vitro; simulated gastric fluid without enzyme, pH 1.4) [h] | half-life (in vitro; simulated gi fluid) [h] |
| --- | --- | --- | --- | --- | --- | --- | --- | --- | --- | --- | --- | --- | --- | --- |
| – | C=C1NC(=O)[C@H](Cc2c[nH]c3ccccc23)NC(=O)[C@H](NC(=O)[C@H](CCCCN)NC(=O)[C@@H](N)[C@@H](C)CC)CSC[C@@H](C(=O)N[C@H]2C(=O)N3CCC[C@H]3C(=O)NCC(=O)N[C@H](C(=O)N[C@@H](C)C(=O)N[C@@H](CC(N)=O)C(=O)NC(=CC)C(=O)N[C@@H](C)C(=O)N[C@@H]3CSC[C@@H]4NC(=O)[C@H](Cc5ccc(O)cc5)NC(=O)[C@@H](CS/C=C\NC4=O)NC(=O)[C@H](CC(N)=O)NC(=O)[C@H](Cc4ccccc4)NC3=O)CS[C@H]2C)NC(=O)[C@H](CC(C)C)NC1=O [F1I R13N G15A] | > 12 | > 12 | >64 | 64 | 4 (≈ 1.82 µM) | 8 (≈ 3.63 µM) | 16 (≈ 7.26 µM) | 32 (≈ 14.5 µM) | >64 | 8 (≈ 3.63 µM) | 32 (≈ 14.5 µM) | – | – |
| – | C=C1NC(=O)[C@H](Cc2c[nH]c3ccccc23)NC(=O)[C@H](NC(=O)[C@H](CCCCN)NC(=O)[C@H](C)N)CSC[C@@H](C(=O)N[C@H]2C(=O)N3CCC[C@H]3C(=O)NCC(=O)N[C@H](C(=O)N[C@@H](C)C(=O)NCC(=O)NC(=CC)C(=O)NCC(=O)N[C@@H]3CSC[C@@H]4NC(=O)[C@H](Cc5ccc(O)cc5)NC(=O)[C@@H](CS/C=C\NC4=O)NC(=O)[C@H](CC(N)=O)NC(=O)[C@H](Cc4ccccc4)NC3=O)CS[C@H]2C)NC(=O)[C@H](CC(C)C)NC1=O [F1A R13G] | 2.07 | 4.98 | >64 | >64 | 4 (≈ 1.91 µM) | 16 (≈ 7.66 µM) | 32 (≈ 15.3 µM) | >64 | >64 | 16 (≈ 7.66 µM) | 32 (≈ 15.3 µM) | – | – |
| – | C=C1NC(=O)[C@H](CCSC)NC(=O)[C@H](NC(=O)[C@H](CCCCN)NC(=O)[C@@H](N)[C@@H](C)CC)CSC[C@@H](C(=O)N[C@H]2C(=O)N3CCC[C@H]3C(=O)NCC(=O)N[C@H](C(=O)N[C@@H](C)C(=O)N[C@@H](C)C(=O)NC(=CC)C(=O)NCC(=O)N[C@@H]3CSC[C@@H]4NC(=O)[C@H](Cc5ccc(O)cc5)NC(=O)[C@@H](CS/C=C\NC4=O)NC(=O)[C@H](CC(N)=O)NC(=O)[C@H](Cc4ccccc4)NC3=O)CS[C@H]2C)NC(=O)[C@H](CC(C)C)NC1=O [F1I W4M R13A] | 5.82 | > 12 | 64 (≈ 30.6 µM) | 64 | 8 (≈ 3.83 µM) | 32 (≈ 15.3 µM) | 32 (≈ 15.3 µM) | >64 | >64 | 16 (≈ 7.65 µM) | >64 | – | – |
| – | CSCC[C@H](N)C(=O)N[C@@H](CCCNC(=N)N)C(=O)N[C@@H](Cc1ccccc1)C(=O)N[C@@H](C)C(=O)O [Positive Control, NH2-Met-Arg-Phe-Ala-OH, reference compound] (H-MRFA-OH) | – | – | – | – | – | – | – | – | – | – | – | > 24 | – |
| – | C=C1NC(=O)[C@H](Cc2c[nH]c3ccccc23)NC(=O)[C@H](NC(=O)[C@H](CCCCN)NC(=O)[C@H](C)N)CSC[C@@H](C(=O)N[C@H]2C(=O)N3CCC[C@H]3C(=O)NCC(=O)N[C@H](C(=O)N[C@@H](C)C(=O)N[C@@H](C)C(=O)NC(=CC)C(=O)NCC(=O)N[C@@H]3CSC[C@@H]4NC(=O)[C@H](Cc5ccc(O)cc5)NC(=O)[C@@H](CS/C=C\NC4=O)NC(=O)[C@H](CC(N)=O)NC(=O)[C@H](Cc4ccccc4)NC3=O)CS[C@H]2C)NC(=O)[C@H](CC(C)C)NC1=O [F1A R13A] | 2.17 | > 12 | >64 | 64 | 2 (≈ 0.951 µM) | 8 (≈ 3.8 µM) | 16 (≈ 7.61 µM) | 32 (≈ 15.2 µM) | 32 (≈ 15.2 µM) | 4 (≈ 1.9 µM) | 16 (≈ 7.61 µM) | – | – |
| – | C=C1NC(=O)[C@H](Cc2c[nH]c3ccccc23)NC(=O)[C@H](NC(=O)[C@H](CCCCN)NC(=O)[C@@H](N)CO)CSC[C@@H](C(=O)N[C@H]2C(=O)N3CCC[C@H]3C(=O)NCC(=O)N[C@H](C(=O)N[C@@H](C)C(=O)N[C@@H](CC(N)=O)C(=O)NC(=CC)C(=O)NCC(=O)N[C@@H]3CSC[C@@H]4NC(=O)[C@H](Cc5ccc(O)cc5)NC(=O)[C@@H](CS/C=C\NC4=O)NC(=O)[C@H](CC(N)=O)NC(=O)[C@H](Cc4ccccc4)NC3=O)CS[C@H]2C)NC(=O)[C@H](CC(C)C)NC1=O [F1S R13N] | > 12 | > 12 | >64 | >64 | 8 (≈ 3.7 µM) | 16 (≈ 7.4 µM) | 32 (≈ 14.8 µM) | >64 | >64 | 16 (≈ 7.4 µM) | 64 (≈ 29.6 µM) | – | – |
| – | C=C1NC(=O)[C@H](Cc2c[nH]c3ccccc23)NC(=O)[C@H](NC(=O)[C@H](CCCCN)NC(=O)[C@@H](N)CC(C)C)CSC[C@@H](C(=O)N[C@H]2C(=O)N3CCC[C@H]3C(=O)NCC(=O)N[C@H](C(=O)N[C@@H](C)C(=O)N[C@@H](CC(=O)O)C(=O)NC(=CC)C(=O)NCC(=O)N[C@@H]3CSC[C@@H]4NC(=O)[C@H](Cc5ccc(O)cc5)NC(=O)[C@@H](CS/C=C\NC4=O)NC(=O)[C@H](CC(N)=O)NC(=O)[C@H](Cc4ccccc4)NC3=O)CS[C@H]2C)NC(=O)[C@H](CC(C)C)NC1=O [F1L R13D] | > 12 | > 12 | 8 (≈ 3.65 µM) | 4 | 2 (≈ 0.913 µM) | 8 (≈ 3.65 µM) | 8 (≈ 3.65 µM) | 64 (≈ 29.2 µM) | 32 (≈ 14.6 µM) | 1 (≈ 0.457 µM) | 32 (≈ 14.6 µM) | – | > 24 |
| – | C=C1NC(=O)[C@H](Cc2c[nH]c3ccccc23)NC(=O)[C@H](NC(=O)[C@H](CCCCN)NC(=O)CN)CSC[C@@H](C(=O)N[C@H]2C(=O)N3CCC[C@H]3C(=O)NCC(=O)N[C@H](C(=O)N[C@@H](C)C(=O)N[C@@H](CC(N)=O)C(=O)NC(=CC)C(=O)NCC(=O)N[C@@H]3CSC[C@@H]4NC(=O)[C@H](Cc5ccc(O)cc5)NC(=O)[C@@H](CS/C=C\NC4=O)NC(=O)[C@H](CC(N)=O)NC(=O)[C@H](Cc4ccccc4)NC3=O)CS[C@H]2C)NC(=O)[C@H](CC(C)C)NC1=O [F1G R13N] | 3.75 | > 12 | >64 | >64 | 4 (≈ 1.88 µM) | 8 (≈ 3.75 µM) | 16 (≈ 7.5 µM) | >64 | >64 | 16 (≈ 7.5 µM) | 32 (≈ 15 µM) | – | – |
| 0.5 (≈ 1.13 µM) | CN(C)[C@@H]1C(O)=C(C(N)=O)C(=O)[C@@]2(O)C(O)=C3C(=O)c4c(O)cccc4[C@@](C)(O)[C@H]3C[C@@H]12 [Tetracycline, reference compound] | – | – | – | 0.25 | – | – | – | – | – | – | – | – | – |
| – | C=C1NC(=O)[C@H](Cc2c[nH]c3ccccc23)NC(=O)[C@H](NC(=O)[C@H](CCCCN)NC(=O)[C@@H](N)[C@@H](C)O)CSC[C@@H](C(=O)N[C@H]2C(=O)N3CCC[C@H]3C(=O)NCC(=O)N[C@H](C(=O)N[C@@H](C)C(=O)NCC(=O)NC(=CC)C(=O)NCC(=O)N[C@@H]3CSC[C@@H]4NC(=O)[C@H](Cc5ccc(O)cc5)NC(=O)[C@@H](CS/C=C\NC4=O)NC(=O)[C@H](CC(N)=O)NC(=O)[C@H](Cc4ccccc4)NC3=O)CS[C@H]2C)NC(=O)[C@H](CC(C)C)NC1=O [F1T R13G] | 1.9 | > 12 | >64 | >64 | 8 (≈ 3.77 µM) | 8 (≈ 3.77 µM) | 64 (≈ 30.2 µM) | 64 (≈ 30.2 µM) | 64 (≈ 30.2 µM) | 8 (≈ 3.77 µM) | 32 (≈ 15.1 µM) | – | – |
